Source: patent US8435978B2, “Substituted sulfonamide compounds” (Gruenenthal GmbH, priority 2006, dated 2013)
Counter-ions that a name gives are not always drawn.

Tests used:
[1] = biological target: T1, B1R receptor of the rat (Rattus norvegicus, UniProt P97583); assay: Functional study on the bradykinin receptor 1 (B1R), FLIPR Ca2+ assay, rB1R cells; format: cell-based; conditions: CHO-K1, test substance 10 μM, agonist Des-Arg9-bradykinin 100 nM, % inhibition compared with the maximum achievable inhibition, read-out: B1R Antagonism, rat [10 μM] % Inhibition
T1 construct: host or cells: CHO K1 cells (Chinese hamster ovary), stably transfected
T1 sequence (P97583 1-337): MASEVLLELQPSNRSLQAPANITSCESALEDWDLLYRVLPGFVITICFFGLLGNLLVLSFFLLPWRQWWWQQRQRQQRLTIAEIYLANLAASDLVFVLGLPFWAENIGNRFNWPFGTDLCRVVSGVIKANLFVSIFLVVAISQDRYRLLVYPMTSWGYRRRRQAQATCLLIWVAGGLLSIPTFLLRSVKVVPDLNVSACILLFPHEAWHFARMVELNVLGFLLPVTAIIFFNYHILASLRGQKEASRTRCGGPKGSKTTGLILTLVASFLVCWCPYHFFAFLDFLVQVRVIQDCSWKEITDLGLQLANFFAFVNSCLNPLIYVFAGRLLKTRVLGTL
Summary of the method: (§1)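 Readout: peak Fluo-4 Ca2+ fluorescence, FLIPR. Stable CHO K1 hB1R or rB1R cells; cpd 10 μM, 10 min preincubation, then agonist (hB1R: Lys-Des-Arg9-BK 0.5 nM; rB1R: Des-Arg9-BK 100 nM). Value = % inhibition relative to maximal achievable inhibition.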

[2] = biological target: T2, human B1R receptor (Homo sapiens, UniProt P46663); assay: Functional study on the bradykinin receptor 1 (B1R), FLIPR Ca2+ assay, hB1R cells; format: cell-based; conditions: CHO-K1, test substance 10 μM, agonist Lys-Des-Arg9-bradykinin 0.5 nM, % inhibition compared with the maximum achievable inhibition, read-out: B1R Antagonism, human [10 μM] % Inhibition
T2 construct: host or cells: CHO K1 cells (Chinese hamster ovary), stably transfected
T2 sequence (P46663 1-353): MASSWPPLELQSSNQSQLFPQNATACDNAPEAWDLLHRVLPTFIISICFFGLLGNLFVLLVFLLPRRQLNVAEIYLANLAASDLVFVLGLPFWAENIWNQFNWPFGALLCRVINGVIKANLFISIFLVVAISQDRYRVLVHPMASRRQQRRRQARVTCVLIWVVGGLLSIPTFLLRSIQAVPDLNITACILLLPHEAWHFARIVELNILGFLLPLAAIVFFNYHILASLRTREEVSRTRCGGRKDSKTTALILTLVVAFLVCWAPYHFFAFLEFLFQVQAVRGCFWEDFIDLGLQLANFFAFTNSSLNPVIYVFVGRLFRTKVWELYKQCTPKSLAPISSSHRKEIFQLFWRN
Summary of the method: as §1

| SMILES | inhibition at 10 µM [1] [%] | inhibition at 10 µM [2] [%] |
| --- | --- | --- |
| O=C(COCC1Cc2ccccc2CN1S(=O)(=O)c1ccc(Cl)cc1Cl)N1CCC(N2CCOCC2)CC1 (stereo not drawn) [Example 65, 2-((2-(2,4-dichlorophenylsulfonyl)-1,2,3,4-tetrahydroisoquinolin-3-yl)methoxy)-1-(4-morpholinopiperidin-1-yl)ethanone] | 93.2 | 55.4 |
| Cc1cc(C)nc(CC2CCCN2C(=O)COCC2CCCCN2S(=O)(=O)c2c(Cl)cccc2Cl)c1 (stereo not drawn) [Example 457, 2-((1-(2,6-dichlorophenylsulfonyl)piperidin-2-yl)methoxy)-1-(2-((4,6-dimethylpyridin-2-yl)methyl)pyrrolidin-1-yl)ethanone] | 99.7 | 102 |
| COc1cc(C)c(S(=O)(=O)N2Cc3ccccc3CC2COCC(=O)N2CCN(CCCN(C)C)CC2)c(C)c1C (stereo not drawn) [Example 560, 1-(4-(3-(dimethylamino)propyl)piperazin-1-yl)-2-((2-(4-methoxy-2,3,6-trimethylphenylsulfonyl)-1,2,3,4-tetrahydroisoquinolin-3-yl)methoxy)ethanone] | 99.3 | 102 |
| COc1cc(C)c(S(=O)(=O)N2CCCCC2COCC(=O)Nc2nc3ccccc3n2C)c(C)c1 (stereo not drawn) [Example 371, 2-((1-(4-methoxy-2,6-dimethylphenylsulfonyl)piperidin-2-yl)methoxy)-N-(1-methyl-1H-benzo[d]imidazol-2-yl)acetamide] | 101 | 0.38 |
| CN(C)c1ccc(CNC(=O)COCC2CCCN2S(=O)(=O)c2c(Cl)cc(Cl)cc2Cl)cc1 (stereo not drawn) [Example 575, N-(4-(dimethylamino)benzyl)-2-((1-(2,4,6-trichlorophenylsulfonyl)pyrrolidin-2-yl)methoxy)acetamide] | 96.8 | 23.4 |
| O=C(COCC1CCCCN1S(=O)(=O)c1c(Cl)cccc1Cl)N1CCN(c2ccc(C(F)(F)F)cn2)CC1 (stereo not drawn) [Example 484, 2-((1-(2,6-dichlorophenylsulfonyl)piperidin-2-yl)methoxy)-1-(4-(5-(trifluoromethyl)pyridin-2-yl)piperazin-1-yl)ethanone] | 101 | 75.6 |
| O=C(COCC1CCCN1S(=O)(=O)c1c(Cl)cc(Cl)cc1Cl)NCCN1CCCC1 (stereo not drawn) [Example 339, N-(2-(pyrrolidin-1-yl)ethyl)-2-((1-(2,4,6-trichlorophenylsulfonyl)pyrrolidin-2-yl)methoxy)acetamide] | 41.6 | 77.5 |
| Cc1ccc(N2CCN(C(=O)COCC3CCCCN3S(=O)(=O)c3c(Cl)cccc3Cl)CC2)cc1C (stereo not drawn) [Example 403, 2-((1-(2,6-dichlorophenylsulfonyl)piperidin-2-yl)methoxy)-1-(4-(3,4-dimethylphenyl)piperazin-1-yl)ethanone] | 100 | 101 |
| COc1cc(C)c(S(=O)(=O)N2CCCCC2COCC(=O)Nc2ccc(N3CCOCC3)nc2)c(C)c1 (stereo not drawn) [Example 396, 2-((1-(4-methoxy-2,6-dimethylphenylsulfonyl)piperidin-2-yl)methoxy)-N-(6-morpholinopyridin-3-yl)acetamide] | 80.6 | 24.7 |
| COc1cc(C)c(S(=O)(=O)N2CCCC2COCC(=O)Nc2nc3ccccc3n2C)c(C)c1 (stereo not drawn) [Example 504, 2-((1-(4-methoxy-2,6-dimethylphenylsulfonyl)pyrrolidin-2-yl)methoxy)-N-(1-methyl-1H-benzo[d]imidazol-2-yl)acetamide] | 90.6 | 24.2 |
| COc1cc(OC)cc(N2CCN(C(=O)COCC3CCCCN3S(=O)(=O)c3c(Cl)cc(Cl)cc3Cl)CC2)c1 (stereo not drawn) [Example 253, 1-(4-(3,5-dimethoxyphenyl)piperazin-1-yl)-2-((1-(2,4,6-trichlorophenylsulfonyl)piperidin-2-yl)methoxy)ethanone] | 101 | 59.3 |
| Cc1ccc2ccccc2c1S(=O)(=O)N1CCCCC1COCC(=O)N1CCN(C2CCN(C)CC2)CC1 (stereo not drawn) [Example 157, 2-((1-(2-methylnaphthalen-1-ylsulfonyl)piperidin-2-yl)methoxy)-1-(4-(1-methylpiperidin-4-yl)piperazin-1-yl)ethanone dihydrochloride] | 100 | 98.2 |
| Cc1cc(C)c(S(=O)(=O)N2CCCCC2COCC(=O)NCC2CCCN(Cc3ccccc3)C2)c(C)c1 (stereo not drawn) [Example 12, N-(1-benzyl-piperidin-3-ylmethyl)-2-[1-(2,4,6-trimethyl-phenylsulfonyl)-piperidin-2-ylmethoxy]-acetamide] | 74.9 | 99.1 |
| COc1ccc(S(=O)(=O)N2c3ccccc3CC2COCC(=O)Nc2cccc(CN3CCCCC3)c2)cc1 (stereo not drawn) [Example 423, 2-((1-(4-methoxyphenylsulfonyl)indolin-2-yl)methoxy)-N-(3-(piperidin-1-ylmethyl)phenyl)acetamide] | 80.1 | 58.7 |
| COc1cc(C)c(S(=O)(=O)N2CCCCC2COCC(=O)Nc2nccc3ccccc23)c(C)c1 (stereo not drawn) [Example 370, N-(isoquinolin-1-yl)-2-((1-(4-methoxy-2,6-dimethylphenylsulfonyl)piperidin-2-yl)methoxy)acetamide] | 98.8 | 18.7 |

The remaining lines, values ahead:

| inhibition at 10 µM [1] [%] | inhibition at 10 µM [2] [%] | SMILES |
| --- | --- | --- |
| 101 | 104 | COc1cc(C)c(S(=O)(=O)N2CCCCC2COCC(=O)N2CCN(Cc3cnc(N(C)C)nc3)CC2)c(C)c1 (stereo not drawn) [Example 199, 1-(4-((2-(dimethylamino)pyrimidin-5-yl)methyl)piperazin-1-yl)-2-((1-(4-methoxy-2,6-dimethylphenylsulfonyl)piperidin-2-yl)methoxy)ethanone] |
| 102 | 40.2 | COc1cc(C)c(S(=O)(=O)N2CCCCC2COCC(=O)N2CCN(Cc3c(C)cc(C)cc3C)CC2)c(C)c1 (stereo not drawn) [Example 383, 2-((1-(4-methoxy-2,6-dimethylphenylsulfonyl)piperidin-2-yl)methoxy)-1-(4-(2,4,6-trimethylbenzyl)piperazin-1-yl)ethanone] |
| 95.5 | 76.4 | COc1cc(C)c(S(=O)(=O)N2CCCC2COCC(=O)N2CCN(c3ccccn3)CC2)c(C)c1 (stereo not drawn) [Example 305, 2-((1-(4-methoxy-2,6-dimethylphenylsulfonyl)pyrrolidin-2-yl)methoxy)-1-(4-(pyridin-2-yl)piperazin-1-yl)ethanone] |
| 109 | 59.9 | COc1cc(C)c(S(=O)(=O)N2CCCC2COCC(=O)NCc2ccc(N3CCCCC3)cc2)c(C)c1 (stereo not drawn) [Example 60, 2-[1-(4-methoxy-2,6-dimethyl-phenylsulfonyl)-pyrrolidin-2-ylmethoxy]-N-(4-piperidin-1-yl-benzyl)-acetamide] |
| 97.9 | 104 | O=C(COCC1CCCN1S(=O)(=O)c1c(Cl)cccc1Cl)N1CCC(CCN2CCCCC2)CC1 (stereo not drawn) [Example 286, 2-((1-(2,6-dichlorophenylsulfonyl)pyrrolidin-2-yl)methoxy)-1-(4-(2-(piperidin-1-yl)ethyl)piperidin-1-yl)ethanone] |
| 104 | 103 | COc1cc(C)c(S(=O)(=O)N2CCCC2COCC(=O)N2CCN(CC3CCCCC3)CC2)c(C)c1 (stereo not drawn) [Example 492, 1-(4-(cyclohexylmethyl)piperazin-1-yl)-2-((1-(4-methoxy-2,6-dimethylphenylsulfonyl)pyrrolidin-2-yl)methoxy)ethanone] |
| 99 | 67.1 | COc1cc(C)c(S(=O)(=O)N2CCCCC2COCC(=O)N2CCN(c3ncc(C(F)(F)F)cc3Cl)CC2)c(C)c1 (stereo not drawn) [Example 376, 1-(4-(3-chloro-5-(trifluoromethyl)pyridin-2-yl)piperazin-1-yl)-2-((1-(4-methoxy-2,6-dimethylphenylsulfonyl)piperidin-2-yl)methoxy)ethanone] |
| 99.9 | 34.3 | CCn1nccc1NC(=O)COCC1CCCCN1S(=O)(=O)c1c(C)cc(OC)cc1C (stereo not drawn) [Example 257, N-(1-ethyl-1H-pyrazol-5-yl)-2-((1-(4-methoxy-2,6-dimethylphenylsulfonyl)piperidin-2-yl)methoxy)acetamide] |
| 87.4 | 104 | COc1cc(C)c(S(=O)(=O)N2CCCCC2COCC(=O)NCc2ccc(CN3CCCCC3)cc2)c(C)c1 (stereo not drawn) [Example 2, 2-[1-(4-methoxy-2,6-dimethyl-phenylsulfonyl)-piperidin-2-ylmethoxy]-N-(4-piperidin-1-ylmethyl-benzyl)-acetamide] |
